Laboratory results from US10117890B2, “Methods and compositions for treating pain” (Academia Sinica, priority 2012, dated 2018).
Entries after “also recorded” stand apart in the source; their conditions may differ.

Key:
[1] = system: acid(ASIC3)-induced chronic muscle pain; experiment: Acid-induced chronic muscle pain model (repeated intramuscular acid injection, von Frey test); format: in vivo, mice; settings: for acid-induced hyperalgesia, co-injection with acidic saline: 1 nmole, i.m.
Excerpt: Adult (8- to 12-wk-old) C57/BL6 mice were used. All procedures followed the Guide for the Use of Laboratory Animals (National Academy Press, Washington D.C., USA) and were approved by the Institutional Animal Care and Use Committee of Academia Sinica. We aimed to minimize the number of animals used and their suffering without compromising the quality of the experiments. The generation and genotyping of Tac1^−/− mice and Asic3^−/− mice were as described. Both null mutant mice were backcrossed to C57/BL6 for 10 generations to establish a congenic strain. Congenic Tac1^−/− Asic3^−/− mice were offspring of Tacl^+/− and Asic3^+/− intercrosses.
Mice received an intramuscular acid injection in the gastrocnemius muscle (GM) containing 20 μl acid saline (pH 4.0) with or without (Sar^9, Met(O2)^11)-substance P (SP; 4, 10, or 40 μM) or 100 μM RP67580 or 200 μM XE991. Mechanical hyperalgesia was assessed by applying a 0.2-mN von Frey filament to the plantar surface of both hind paws of mice. Mice were acclimatized in an acrylic cubicle for 60 min before testing. A positive response was defined as the foot lifting when the von Frey filament was applied. For each paw, the filament was applied 5 times at 30-sec intervals. Responses of the paw to mechanical stimuli were measured before injection and at 4 and 24 hr and 5 days after the first acid injection (day 0) and at 4, 24, and 72 hr and 1 week after the second acid injection (day 5). For single-injection experiments, responses to mechanical stimuli were measured before the injection, at 4 hr and at 1, 3, 5, 7, 9, 11, 13, 15 and 22 days after the injection or at 4, 24, 48 hr and 7 and 14 days after the injection. NK1-selective agonist ((Sar^9, Met(O2)^11)—SP) was from Sigma Chemical (St. Louis, Mo.). NK1-selective antagonist (RP67580) and XE991 were from Tocris (Avonmouth, UK). The experimenters were blinded to the experimental manipulations. The person who conducted von Frey test had no information of the mouse genotypes or drug injections.

[2] = system: muscle nociceptors (ASIC3-positive muscle afferent DRG neurons expressing ISP-O); experiment: Whole-cell patch-clamp recording of outward currents in muscle afferent DRG neurons; format: cell-based, mice; settings: for induction of outward current in ASIC3/SP-expressing muscle DRG neurons: SP-sensitive muscle nociceptors; for inhibition of T1-11-induced outward current (IT1-11) by adenosine receptor antagonists: muscle nociceptors
Experimental: The digested DRG neurons were washed with fetal calf serum (FCS)-free DMEM or DMEM containing 10% FCS during each treatment. Fully digested DRGs were triturated and plated on poly-L-lysine-coated cover slides. Cell cultures were maintained in a 5% CO2 incubator at 37° C.
Whole-cell patch-clamp recordings of muscle-afferent neurons involved use of Axopatch MultiClamp 700B (Axon Instruments). Neurons with membrane potential >−40 mV were discarded. The bridge was balanced in current-clamp recording, and the series resistance was compensated 70% in voltage-clamp recording with […] 700B compensation circuitry. All experiments were performed at room temperature (21-25° C.) and completed within 30 hr post-seeding. Unless specifically mentioned, the patch pipettes were prepared in 1-5 MΩ and filled with internal solution containing (in mM) 100 KCl, 2 Nae-ATP, 0.3 Na3-GTP, 10 EGTA, 5 MgCl2, and 40 HEPES, adjusted to pH 7.4 with KOH. Recording cells were superfused in artificial cerebrospinal fluid (ACSF) by control with gravitational force. The ACSF contained (in mM) 130 NaCl, 5 KCl, 1 MgCl2, 2 CaCl2, 10 glucose, and 20 HEPES, adjusted to pH 7.4 with NaOH. Osmolarity was adjusted to 300 mOsm. The acidic ACSF was titrated to pH 6.8 by […]. […] If not specifically mentioned, drugs listed above were from Sigma Chemical (St. Louis, Mo.).
The procedure was repeated at least 2 times to ensure consistent data. […] ACSF-containing compounds were superfused for 1 min to ensure complete replacement of previous perfusate between treatments. […] A recording pipette containing 1 mM GDP-β-S was used in GTP dialysis. The GABA-B current was induced by 100 μM Baclofen at the beginning of dialysis (0, 1 and 2 min after whole-cell patch clamp). Then, Baclofen was used to re-stimulate the dialyzed neurons after 10-min dialysis (10, 11 and 12 min after whole-cell patch clamp).

ASIC3 = experiment: Whole-cell patch clamp of acid-induced current in CHO cells transfected with ASIC3; format: cell-based
ICS-induced pain = experiment: Intermittent cold stress (ICS) mouse model of fibromyalgia, von Frey test; format: in vivo, mice; settings: SM-substance P 0.6 mg/kg alone
Experimental: Mechanical hyperalgesia was assessed by applying a 0.2 mN von Frey filament to the plantar surface of both hind paws. For each paw, the filament was applied for 5 times at 30-s intervals.
To induce fibromyalgia-like symptoms, mice were treated with intermittent cold stress, which produces long-lasting (more than 2 weeks) thermal hyperalgesia and mechanical allodynia, predominantly in females. Method: Mice were placed on stainless mesh plate in a cold room at 4° C. overnight (from 4:30 pm to 10:00 am), followed by intermittent cold stress with environment temperatures alternating between 24 and 4° C. every 30 min, from 10:00 am to 4:30 pm. These procedures were repeated twice. On day 3, the mice were adapted to 24 C for 1 h before behavioral testing.
The second fibromyalgia model is developed by Ueda's group, in which mice were treated with intermittent cold stress for 2 days (Nishiyori & Ueda, 2008). Mice treated with intermittent cold stress will develop long-lasting (>2 weeks) mechanical and thermal hyperalgesia. Analgesic effect of T1-11 was tested in these mice 5 day after intermittent cold stress (ICS). […] Moreover, we found T1-11 and substance P have synergistic effect in treating the ICS-induced pain.

CCNC(=O)[C@H]1O[C@@H](n2cnc3c(N)nc(NCCc4ccc(CCC(=O)O)cc4)nc32)C(O)C1O (stereo in doubt) [CGS21680, reference compound]
acid-induced hyperalgesia, co-injection with acidic saline [1]: partially inhibited acid-induced hyperalgesia; also recorded: showed partial analgesic effect | outward current in A2A−/− muscle afferent DRG neurons ([2]; CGS21680 high dose 10 μM): induces an outward current | induction of outward current in ASIC3/SP-expressing muscle DRG neurons [2]: can also induce outward currents

O=C(O)c1ccccc1O [salicylic acid, reference compound]
acid-induced current in CHO cells transfected with ASIC3 (ASIC3): blocked

(Sar^9, Met(O2)^11)-substance P [SM-substance P, reference compound]
analgesic effect on ICS-treated mice, SM-substance P alone (ICS-induced pain): did not show analgesic effect

OC[C@H]1O[C@@H](n2cnc3c(NCc4ccc(Br)cc4)ncnc32)C(O)C1O (some centres unmarked) [JMF2665]
induction of outward current in ASIC3/SP-expressing muscle DRG neurons [2]: can also induce outward currents

CNC(=O)[C@H]1O[C@@H](n2cnc3c(NCc4cccc(I)c4)ncnc32)[C@H](O)[C@@H]1O [IB-MECA]
acid-induced hyperalgesia, co-injection with acidic saline [1]: has no effect on acid-induced hyperalgesia; also recorded: did not have analgesic effect

OC[C@H]1O[C@@H](n2cnc3c(NCCc4c[nH]c5ccccc45)ncnc32)C(O)C1O (stereo in doubt) [JMF1907]
induction of outward current in ASIC3/SP-expressing muscle DRG neurons [2]: can also induce outward currents

O=C(Cc1ccccc1)Nc1nc2ccc(Cl)cc2c2nc(-c3ccco3)nn12 [MRS1220, reference compound]
effect of antagonist on the analgesic effect of T1-11 ([1]; MRS1220 200 pmole i.m.): abolished the analgesic effect of T1-11 | inhibition of T1-11-induced outward current (IT1-11) by adenosine receptor antagonists [2]: reversely inhibited

COc1ccccc1CC(=N)N1C[C@@H]2C(=O)CCC(c3ccccc3)(c3ccccc3)[C@@H]2C1 [RP67580, reference compound]
inhibition of IT1-11 by NK1 receptor antagonist ([2]; RP67580 (10 n=17)): inhibited IT1-11

OC[C@H]1O[C@@H](n2cnc3c(NCc4cccc(O)c4)ncnc32)C(O)C1O (some centres unmarked) [JMF1998]
induction of outward current in ASIC3/SP-expressing muscle DRG neurons [2]: can also induce outward currents

APETx2
acid-induced hyperalgesia, co-injection of acid and APETx2 ([1]; APETx2 2 pmole at the first acid injection): abolished the transient hyperalgesia and prevented the development of chronic hyperalgesia

CCCn1cc2c(nc(NC(=O)Nc3ccc(OC)cc3)n3nc(-c4ccco4)nc23)n1 [MRE3008F20, reference compound]
inhibition of T1-11-induced outward current (IT1-11) by adenosine receptor antagonists [2]: reversely inhibited
